Data: US10876003B2, “Class of stable heptamethine cyanine fluorophores and biomedical applications thereof” (priority 2014, dated 2020)

What was measured:
[1] = Maximum absorbance wavelength in pH 7.4 phosphate-buffered saline; type: physicochemical; conditions: for λmax: 2 μM in 0.1 M PBS
Experimental: Table 1 includes exemplary compounds according to formula II, in which n is 2, R^1 is —CH2—, m is 2, R^2 is methyl, R^14 to R^17 are methyl, and R^5, R^6, R^8, R^10, R^11 and R^13 are hydrogen. Other substituents are as indicated. The maximum absorbance wavelength (λmax) was measured in pH 7.4 phosphate-buffered saline.
Unless stated otherwise, reactions were conducted in oven-dried glassware under an atmosphere of nitrogen or argon using anhydrous solvents (passed through activated alumina columns) All other commercially obtained reagents were used as received. […] Flash column chromatography was performed using normal phase or reverse phase on a CombiFlash® Rf 200i (Teledyne Isco Inc.). […] Data for ^1H NMR spectra are reported as follows: chemical shift (6 ppm), multiplicity, coupling constant (Hz), and integration. ^13C NMR spectra were recorded on Varian spectrometers (at 100 or 125 MHz). Data for ^13C NMR spectra are reported in terms of chemical shift. IR spectra were recorded on a JASCO FT/IR 4100 spectrometer and are reported in terms of frequency of absorption (cm^−1). High-resolution LC/MS analyses were conducted on a Thermo-Fisher LTQ-Orbitrap-XL hybrid mass spectrometer system with an Ion MAX API electrospray ion source in positive ion mode. Separations were carried out on a narrow-bore (50×2.1 mm), Zorbax Rapid-Resolution, reversed-phase C18 (3.5 μm) column with a flow rate of 250 μL/min with a 10 min, 2-90% gradient of MeCN/H2O containing 0.1% HCOOH. […] Fluorescence traces and quantum yield measurements were recorded on a PTI QuantaMaster steady-state spectrofluorimeter operated by FelixGX 4.0.3 software, with 10 nm excitation and emission slit widths, 0.1 s integration rate, and enabled emission correction.

[2] = methanol; James et al., Theranostics 2013; cited from earlier work
[3] = Quantum yields, molar absorption coefficients, absorbance and emission spectra; type: physicochemical; conditions: for ε (M^−1cm^−1): Table 4 footnote: methanol, method b204: PBS, 25° C.; for λem (nm) / λmax (nm): methanol
[4] = type: physicochemical; conditions: buffer, pH 7.4
Experimental: Solutions of commercially available IRDye 800 CW (a phenol-substituted heptamethine cyanine available from Li-Cor Biotechnology, Lincoln, Nebr.) and compound 13 (Glut-Cy-503), 10 μM, were prepared in pH 7.4 phosphate-buffered saline and exposed to physiologically relevant concentrations of glutathione (GSH, 1 mM) at room temperature. […] Upon analysis by LCMS, signals consistent with the glutathione adduct were observed concomitant with the disappearance of the phenol (IRDye 800 CW) (FIG. 7).

CCCN1/C(=C/C=C2\CCCC(/C=C/C3=[N+](CCC)c4ccccc4C3(C)C)=C2OCCN(C)C(=O)CCCC(=O)O)C(C)(C)c2ccccc21 [Compound 10]
λmax ([1]; pH 7.4, with 0.1% DMSO (v/v)): 760 nm

CCCN1/C(=C/C=C2\CCCC(/C=C/C3=[N+](CCC)c4ccccc4C3(C)C)=C2N(C)CCO)C(C)(C)c2ccccc21 [Compound 6]
broad hypsochromic absorbance maximum ([1]; solvent not given): 687 nm

CC1(C)C(/C=C/C=C/C=C/C=C2\N(CCCCS(=O)(=O)O)c3ccc4ccccc4c3C2(C)C)=[N+](CCCCS(=O)(=O)[O-])c2ccc3ccccc3c21 [ICG, indocyanine green, reference compound]
Φf of standard [2]: 0.078
ε (M^−1cm^−1) [3]: 204,000 M^−1cm^−1
λem (nm) [3]: 822 nm
λmax (nm) [3]: 785 nm

CC1(C)C(=CC=C2CCCC(C=CC3=[N+](CCCCS(=O)(=O)[O-])c4ccccc4C3(C)C)=C2Cl)N(CCCCS(=O)(=O)[O-])c2ccccc21.[Na+] [IR783]
Φf of standard [2]: 0.084

CCCN1/C(=C/C=C2\CCCC(/C=C/C3=[N+](CCC)c4ccccc4C3(C)C)=C2OCCN(C)C(=O)OCc2ccccc2)C(C)(C)c2ccccc21 [Compound 8]
λex [3]: 774 nm
ε (M^−1cm^−1) [3]: 187,000 M^−1cm^−1
Φf ([3]; measured in methanol relative to ICG): 0.22
λem (nm) [3]: 797 nm
λmax (nm) [3]: 774 nm
λmax ([1]; pH 7.4, with 20% DMSO (v/v)): 763 nm

CC1(C)C(=CC=C2CCCC(C=CC3=[N+](CCCCCC(=O)[O-])c4ccc(S(=O)(=O)[O-])cc4C3(C)C)=C2Oc2ccc(S(=O)(=O)[O-])cc2)N(CCCCS(=O)(=O)[O-])c2ccc(S(=O)(=O)[O-])cc21.[Na+].[Na+].[Na+].[Na+] [IRDye 800 CW]
t1/2 of degradation to the glutathione adduct [4]: 50 min

CCCN1/C(=C/C=C2\CCCC(/C=C/C3=[N+](CCC)c4ccccc4C3(C)C)=C2OCCN(C)C(=O)OCC2c3ccccc3-c3ccccc32)C(C)(C)c2ccccc21 [Compound 9]
λmax ([1]; pH 7.4, with 20% DMSO (v/v)): 765 nm
